Data on 5 compounds can be found in US20250145665A1, “MACROCYCLIC PEPTIDES USEFUL AS MODULATORS OF TNF ALPHA” (Bristol-Myers Squibb Company, priority 2023, published 2025).

The term IC50 denotes the concentration needed to halve the response being measured.

Read-outs that look alike come from different tables or passages of the source. Starred links: 1 amine or outer side, 2 acyl side, 3 side chain; linkers in the order of their positions; H or OH if unused. Positions of bridges follow the written chain, without caps; N, C: chain ends. Non-standard residues stand in square brackets, D forms with d. Residues, ends and D or L forms follow the SMILES beside them. *: point of attachment. Bip(4'-NHCO-C6H4-3-CH2COOH) = N[C@@H](Cc1ccc(-c2ccc(NC(=O)c3cccc(CC(=O)O)c3)cc2)cc1)C(=O)O; Bip(4'-NHCO-C6H4-4-CH2COOH) = N[C@@H](Cc1ccc(-c2ccc(NC(=O)c3ccc(CC(=O)O)cc3)cc2)cc1)C(=O)O; dArg(Nω-CH2C6H4-3-CH2Gua) = N=C(N)NCc1cccc(CNC(=N)NCCC[C@@H](N)C(=O)O)c1; Bip(4'-NH) = O=C([C@H](Cc1ccc(-c2ccc(N[*:3])cc2)cc1)N[*:1])[*:2]; Bip(4'-COOH) = N[C@@H](Cc1ccc(-c2ccc(C(=O)O)cc2)cc1)C(=O)O; Indole3carbonyl(1-CH2COOH) = O=C(O)Cn1cc(C(=O)*)c2ccccc21; Ala(morpholin-4-yl) = N[C@@H](CN1CCOCC1)C(=O)O; Benzoyl(3-OCH2COOH) = O=C(O)COc1cccc(C(=O)*)c1; Bip = N[C@@H](Cc1ccc(-c2ccccc2)cc1)C(=O)O; Cha = N[C@@H](CC1CCCCC1)C(=O)O; Sar = CNCC(=O)O

For this assay, the target named is TNFα (Homo sapiens, UniProt P01375). The assay is described as follows: TNF-Induced HEK-Blue Assay. It is filed as cell-based.
[1] abbreviates: HEK-Blue-CD40L cells, NF-kB-driven secreted alkaline phosphatase reporter, TNFα 0.5 ng/ml, 18 h, read-out: TNF induced HEK-Blue assay IC50 value.

Chain of TNFα (P01375 77-233 limits assumed): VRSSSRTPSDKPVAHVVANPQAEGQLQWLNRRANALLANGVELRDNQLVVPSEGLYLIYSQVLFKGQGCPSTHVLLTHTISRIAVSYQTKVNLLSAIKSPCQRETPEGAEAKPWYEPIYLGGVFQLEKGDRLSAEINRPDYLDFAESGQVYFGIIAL
Description: TNFα (final concentration 0.5 ng/ml) or CD40L (final concentration 30 ng/ml) in assay buffer [DMEM, 4.5 g/l glucose (Gibco, Cat. 21063-029), 10% FBS (Sigma, F4135), 1% Penicillin-Streptomycin (Gibco, Cat. 15140-122), 1% Anti-Anti (Gibco, Cat. 15240-112) and 2 mM L-glutamine (Gibco, Cat. 25030-081)] was then added to the assay plate. After a 30 minute pre-incubation at 37° C. and 5% CO2, HEK-Blue™-CD40L cells (INVIVOGEN, Cat. Code hkb-cd40) containing a NF-kB-driven secreted alkaline phosphatase reporter gene were seeded into the assay plate at a density of 20,000 cells per well. This plate was then incubated for 18 h at 37° C. and 5% CO2. Secreted alkaline phosphatase expression was measured using QUANTI-Blue™ (INVIVOGEN, Cat. Code rep-qb1) according to manufacturer's specifications and the assay plate was read on a PerkinElmer Envision at 620 nm.
IC50 values were determined after correcting for background [(sample read-mean of low control)/(mean of high control-mean of low control)] where by the low control is DMSO without stimulation and high control is DMSO with stimulation.

`CC(C)C[C@@H]1NC(=O)[C@H](CCCNC(=N)N)NC(=O)[C@H](C(C)C)NC(=O)[C@@H]2CCCN2C(=O)[C@H](C(C)C)NC(=O)[C@@H](CCCNC(=N)NCc2cccc(CNC(=N)N)c2)NC(=O)[C@H](CC(=O)O)NC(=O)[C@@H]2CCCN2C(=O)CN(C)C(=O)[C@H](Cc2ccc(-c3ccc(NC(=O)c4cn(CC(=O)O)c5ccccc45)cc3)cc2)NC(=O)[C@H](Cc2ccc(-c3ccccc3)cc2)NC(=O)[C@H](CN2CCOCC2)NC(=O)CSC[C@@H](C(=O)NCC(N)=O)NC1=O` [Example 569] ({CH2CO}-[Ala(morpholin-4-yl)][Bip][Bip(4'-NH)](Indole3carbonyl(1-CH2COOH))[Sar]PD[dArg(Nω-CH2C6H4-3-CH2Gua)]VPVRLCG-NH2; thioether N-13) displayed an IC50 below 50 nM.
For `CC(C)C[C@@H]1NC(=O)[C@H](CCCNC(=N)N)NC(=O)[C@H](C(C)C)NC(=O)[C@@H]2CCCN2C(=O)[C@H](C(C)C)NC(=O)[C@@H](CCCNC(=N)NCc2cccc(CNC(=N)N)c2)NC(=O)[C@H](CC(=O)O)NC(=O)[C@@H]2CCCN2C(=O)CN(C)C(=O)[C@H](Cc2ccc(-c3ccc(NC(=O)c4cccc(CC(=O)O)c4)cc3)cc2)NC(=O)[C@H](Cc2ccc(-c3ccccc3)cc2)NC(=O)[C@H](CN2CCOCC2)NC(=O)CSC[C@@H](C(=O)NCC(N)=O)NC1=O` [Example 570] ({CH2CO}-[Ala(morpholin-4-yl)][Bip][Bip(4'-NHCO-C6H4-3-CH2COOH)][Sar]PD[dArg(Nω-CH2C6H4-3-CH2Gua)]VPVRLCG-NH2; thioether N-13), the IC50 under setting [1] was in the range of 50 to 200 nM.
On the same count and under the same terms, in the case of `CC(C)C[C@@H]1NC(=O)[C@H](CCCNC(=N)N)NC(=O)[C@H](C(C)C)NC(=O)[C@@H]2CCCN2C(=O)[C@H](C(C)C)NC(=O)[C@@H](CCCNC(=N)NCc2cccc(CNC(=N)N)c2)NC(=O)[C@H](CC(=O)O)NC(=O)[C@@H]2CCCN2C(=O)CN(C)C(=O)[C@H](Cc2ccc(-c3ccc(NC(=O)c4ccc(CC(=O)O)cc4)cc3)cc2)NC(=O)[C@H](Cc2ccc(-c3ccccc3)cc2)NC(=O)[C@H](CN2CCOCC2)NC(=O)CSC[C@@H](C(=O)NCC(N)=O)NC1=O` [Example 571] ({CH2CO}-[Ala(morpholin-4-yl)][Bip][Bip(4'-NHCO-C6H4-4-CH2COOH)][Sar]PD[dArg(Nω-CH2C6H4-3-CH2Gua)]VPVRLCG-NH2; thioether N-13) it was 50 to 200 nM; in that of `CC(C)C[C@@H]1NC(=O)[C@H](CCCNC(=N)N)NC(=O)[C@H](C(C)C)NC(=O)[C@@H]2CCCN2C(=O)[C@H](C(C)C)NC(=O)[C@@H](CCCNC(=N)NCc2cccc(CNC(=N)N)c2)NC(=O)[C@H](CC(=O)O)NC(=O)[C@@H]2CCCN2C(=O)CN(C)C(=O)[C@H](Cc2ccc(-c3ccc(NC(=O)c4cccc(OCC(=O)O)c4)cc3)cc2)NC(=O)[C@H](Cc2ccc(-c3ccccc3)cc2)NC(=O)[C@H](CN2CCOCC2)NC(=O)CSC[C@@H](C(=O)NCC(N)=O)NC1=O` [Example 572] ({CH2CO}-[Ala(morpholin-4-yl)][Bip][Bip(4'-NH)](Benzoyl(3-OCH2COOH))[Sar]PD[dArg(Nω-CH2C6H4-3-CH2Gua)]VPVRLCG-NH2; thioether N-13), below 50 nM.
Same read-out and setting: in the case of `CC[C@H](C)[C@@H]1NC(=O)[C@@H](CCCNC(=N)N)NC(=O)[C@H](CC(=O)O)NC(=O)[C@@H]2CCCN2C(=O)CN(C)C(=O)[C@H](Cc2ccc(-c3ccc(NC(=O)c4cccc(OCC(=O)O)c4)cc3)cc2)NC(=O)[C@H](Cc2ccc(-c3ccc(C(=O)O)cc3)cc2)NC(=O)[C@H](CC2CCCCC2)NC(=O)CSC[C@@H](C(=O)NCC(N)=O)NC(=O)[C@H](CC(C)C)NC(=O)[C@H](Cc2cnc[nH]2)NC(=O)[C@H](C(C)C)NC(=O)[C@@H]2CCCN2C1=O` [Example 573] ({CH2CO}-[Cha][Bip(4'-COOH)][Bip(4'-NH)](Benzoyl(3-OCH2COOH))[Sar]PD[dR]IPVHLCG-NH2; thioether N-13) it was 50 to 200 nM.
